Test results: ChEMBL document CHEMBL5543119, “Discovery of Novel 11-Membered Templates as Squalene Synthase Inhibitors” (J Med Chem, 2024)

System: Hamster
Test: Lipid lowering effect in hamster assessed as reduction in total cholesterol level in serum at 100 mg/kg, po bid administered at 9 a.m and 4 p.m for 14 days relative to control
Assay type: functional, Cricetinae
Design: scale not given: the % may be the effect or the level left
Settings: time 14 day

| SMILES | Activity [%] |
| --- | --- |
| COc1cccc([C@H]2O[C@H](CC(=O)N3CCC(CC(=O)O)CC3)C(=O)N(CC(C)(C)CO)c3ccc(Cl)cc32)c1OC | 2 |

Target: T1, Squalene synthase (Rattus norvegicus, UniProt Q02769)
T1 sequence (Q02769 whole entry): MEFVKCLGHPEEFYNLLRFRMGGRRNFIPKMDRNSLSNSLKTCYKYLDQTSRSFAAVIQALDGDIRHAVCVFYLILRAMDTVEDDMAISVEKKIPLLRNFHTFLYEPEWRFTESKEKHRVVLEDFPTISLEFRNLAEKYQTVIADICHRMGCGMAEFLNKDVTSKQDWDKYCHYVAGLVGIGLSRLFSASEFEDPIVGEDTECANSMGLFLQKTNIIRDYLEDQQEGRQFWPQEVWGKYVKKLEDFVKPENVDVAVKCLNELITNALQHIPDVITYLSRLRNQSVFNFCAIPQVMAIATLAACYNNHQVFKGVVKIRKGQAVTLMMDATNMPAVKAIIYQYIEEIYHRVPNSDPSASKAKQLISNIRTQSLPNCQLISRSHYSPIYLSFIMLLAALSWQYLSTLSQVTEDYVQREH
Test: Inhibition of squalene synthase in rat liver microsomes using [3H] farnesyl pyrophosphate as substrate preincubated for 10 mins followed by substrate addition and measured after 30 mins by liquid scintillation counter analysis
Design: species or system Microsome
Settings: not given

| SMILES | IC50 [µM] |
| --- | --- |
| COc1ccccc1C1OCCN(C(=O)C(=O)O)CCC(=O)N(CC(C)(C)C)c2ccc(Cl)cc21 (centres undefined) | > 0.6 |
| COc1ccccc1C1OCC(=O)NCCC(=O)N(CC(C)(C)C)c2ccc(Cl)cc21 (centres undefined) | > 0.6 |
| COc1ccccc1[C@@H]1OCCCN(C(=O)N2CCC(CC(=O)O)CC2)CC(=O)N(CC(C)(C)C)c2ccc(Cl)cc21 | 1.4 |
| COc1ccccc1C1OCCN(CC(=O)N2CCCC(C(=O)O)C2)C(=O)CC(=O)N(CC(C)(C)C)c2ccc(Cl)cc21 (centres undefined) | > 0.6 |
| COc1ccccc1C1OCCCNCC(=O)N(CC(C)(C)C)c2ccc(Cl)cc21 (centres undefined) | > 0.6 |
| COc1ccccc1C1OCCN(C(=O)C(F)(F)F)CCC(=O)N(CC(C)(C)C)c2ccc(Cl)cc21 (centres undefined) | > 0.6 |
| COc1ccccc1C1OCCC(=O)N(CC(=O)O)CC(=O)N(CC(C)(C)C)c2ccc(Cl)cc21 (centres undefined) | > 0.6 |
| CCOC(=O)CN1CC(=O)N(CC(C)(C)C)c2ccc(Cl)cc2C(c2ccccc2OC)OCCC1=O (centres undefined) | > 0.6 |
| COc1ccccc1C1OCC(=O)N(CC(=O)O)CCC(=O)N(CC(C)(C)C)c2ccc(Cl)cc21 (centres undefined) | > 0.6 |
| COc1ccccc1C1OCCC(=O)N(CC(=O)N2CCC(C(=O)O)CC2)CC(=O)N(CC(C)(C)C)c2ccc(Cl)cc21 (centres undefined) | > 0.6 |
| CCOC(=O)C(=O)N1CCOC(c2ccccc2OC)c2cc(Cl)ccc2N(CC(C)(C)C)C(=O)CC1 (centres undefined) | > 0.6 |
| CCOC(=O)C1CCN(C(=O)CN2CC(=O)N(CC(C)(C)C)c3ccc(Cl)cc3C(c3ccccc3OC)OCCC2=O)CC1 (centres undefined) | > 0.6 |
| CCOC(=O)CN1CCC(=O)N(CC(C)(C)C)c2ccc(Cl)cc2C(c2ccccc2OC)OCC1=O (centres undefined) | > 0.6 |
| COc1ccccc1C1OCCCN(S(=O)(=O)c2ccccc2[N+](=O)[O-])CC(=O)N(CC(C)(C)C)c2ccc(Cl)cc21 (centres undefined) | > 0.6 |
| CCOC(=O)C1CCCN(C(=O)CN2CC(=O)N(CC(C)(C)C)c3ccc(Cl)cc3C(c3ccccc3OC)OCCC2=O)C1 (centres undefined) | > 0.6 |
| CCOC(=O)C1CCCN(C(=O)N2CCCOC(c3ccccc3OC)c3cc(Cl)ccc3N(CC(C)(C)C)C(=O)C2)C1 (centres undefined) | > 0.6 |
| COc1ccccc1C1OCCN(C2CCN(C(=O)C(=O)O)CC2)C(=O)CC(=O)N(CC(C)(C)C)c2ccc(Cl)cc21 (centres undefined) | > 0.6 |
| COc1ccccc1C1OCCN(CC(=O)O)C(=O)CC(=O)N(CC(C)(C)C)c2ccc(Cl)cc21 (centres undefined) | > 0.6 |
| COc1ccccc1C1OCCNCCC(=O)N(CC(C)(C)C)c2ccc(Cl)cc21 (centres undefined) | > 0.6 |
| CCOC(=O)C(=O)N1CCCOC(c2ccccc2OC)c2cc(Cl)ccc2N(CC(C)(C)C)C(=O)C1 (centres undefined) | > 0.6 |
| COc1ccccc1C1OCCN([C@H]2CC[C@@H](C(=O)O)CC2)C(=O)CC(=O)N(CC(C)(C)C)c2ccc(Cl)cc21 (some centres undefined) | 0.45 |
| COc1ccccc1C1OCCN([C@H]2CCC[C@H](C(=O)O)C2)C(=O)CC(=O)N(CC(C)(C)C)c2ccc(Cl)cc21 (some centres undefined) | > 0.6 |
| COc1ccccc1C1OCCN([C@H]2CCC[C@@H](C(=O)O)C2)C(=O)CC(=O)N(CC(C)(C)C)c2ccc(Cl)cc21 (some centres undefined) | > 0.6 |
| COc1ccccc1C1OCCN(CC(=O)N2CCC(C(=O)O)CC2)C(=O)CC(=O)N(CC(C)(C)C)c2ccc(Cl)cc21 (centres undefined) | > 0.6 |
| COc1ccccc1C1OCCCN(C(=O)C(=O)O)CC(=O)N(CC(C)(C)C)c2ccc(Cl)cc21 (centres undefined) | ≥ 0.26 |
| COc1ccccc1C1OCCC(=O)N(CC(=O)N2CCCC(C(=O)O)C2)CC(=O)N(CC(C)(C)C)c2ccc(Cl)cc21 (centres undefined) | > 0.6 |

Results, then the compound that gave them:

| IC50 [µM] | SMILES |
| --- | --- |
| 0.017 | CCOC(=O)[C@@H]1CCC[C@H](N2CCOC(c3ccccc3OC)c3cc(Cl)ccc3N(CC(C)(C)C)C(=O)CC2=O)C1 (some centres undefined) |
| 0.046 | COc1ccccc1C1OCCN(C2CCC(C(=O)O)CC2)C(=O)CC(=O)N(CC(C)(C)C)c2ccc(Cl)cc21 (centres undefined) |
| 0.023 | COc1ccccc1C1OCCN([C@H]2CC[C@H](C(=O)O)CC2)C(=O)CC(=O)N(CC(C)(C)C)c2ccc(Cl)cc21 (some centres undefined) |
| 0.025 | CCOC(=O)C(=O)N1CCC(N2CCOC(c3ccccc3OC)c3cc(Cl)ccc3N(CC(C)(C)C)C(=O)CC2=O)CC1 (centres undefined) |
| 0.004 | COc1ccccc1C1OCCN([C@@H]2CCC[C@@H](C(=O)O)C2)C(=O)CC(=O)N(CC(C)(C)C)c2ccc(Cl)cc21 (some centres undefined) |
| 0.014 | CCOC(=O)C(=O)N1CCCC(N2CCOC(c3ccccc3OC)c3cc(Cl)ccc3N(CC(C)(C)C)C(=O)CC2=O)C1 (centres undefined) |
| 0.0047 | COc1ccccc1C1OCCN([C@@H]2CCC[C@H](C(=O)O)C2)C(=O)CC(=O)N(CC(C)(C)C)c2ccc(Cl)cc21 (some centres undefined) |
| 0.012 | COc1ccccc1C1OCCCN(C(=O)N2CCC(C(=O)O)CC2)CC(=O)N(CC(C)(C)C)c2ccc(Cl)cc21 (centres undefined) |
| 0.016 | CCOC(=O)[C@H]1CC[C@H](N2CCOC(c3ccccc3OC)c3cc(Cl)ccc3N(CC(C)(C)C)C(=O)CC2=O)CC1 (some centres undefined) |
| 0.007 | COc1ccccc1C1OCCCN(C(=O)N2CCC(CC(=O)O)CC2)CC(=O)N(CC(C)(C)C)c2ccc(Cl)cc21 (centres undefined) |
| 0.026 | CCOC(=O)[C@H]1CC[C@@H](N2CCOC(c3ccccc3OC)c3cc(Cl)ccc3N(CC(C)(C)C)C(=O)CC2=O)CC1 (some centres undefined) |
| 0.17 | COc1ccccc1C1OCCCN(C(=O)N2CCCC(C(=O)O)C2)CC(=O)N(CC(C)(C)C)c2ccc(Cl)cc21 (centres undefined) |
| 0.0006 | COc1ccccc1[C@@H](O)c1cc(Cl)ccc1N(CC(C)(C)C)C(=O)CCC(=O)N1CCC[C@H](C(=O)O)C1 |
| 0.054 | CCOC(=O)[C@H]1CCC[C@H](N2CCOC(c3ccccc3OC)c3cc(Cl)ccc3N(CC(C)(C)C)C(=O)CC2=O)C1 (some centres undefined) |
| 0.39 | CCOC(=O)C1CCN(C(=O)CN2CCOC(c3ccccc3OC)c3cc(Cl)ccc3N(CC(C)(C)C)C(=O)CC2=O)CC1 (centres undefined) |
| 0.018 | CCOC(=O)[C@H]1CCC[C@@H](N2CCOC(c3ccccc3OC)c3cc(Cl)ccc3N(CC(C)(C)C)C(=O)CC2=O)C1 (some centres undefined) |
| 0.14 | CCOC(=O)CN1CCOC(c2ccccc2OC)c2cc(Cl)ccc2N(CC(C)(C)C)C(=O)CC1=O (centres undefined) |
| 0.02 | CCOC(=O)CC1CCN(C(=O)N2CCCOC(c3ccccc3OC)c3cc(Cl)ccc3N(CC(C)(C)C)C(=O)C2)CC1 (centres undefined) |
| 0.0044 | COc1ccccc1[C@H]1OCCCN(C(=O)N2CCC(CC(=O)O)CC2)CC(=O)N(CC(C)(C)C)c2ccc(Cl)cc21 |
| 0.021 | COc1ccccc1C1OCCN(C2CCCN(C(=O)C(=O)O)C2)C(=O)CC(=O)N(CC(C)(C)C)c2ccc(Cl)cc21 (centres undefined) |
| 0.064 | CCOC(=O)C1CCCN(C(=O)CN2CCOC(c3ccccc3OC)c3cc(Cl)ccc3N(CC(C)(C)C)C(=O)CC2=O)C1 (centres undefined) |
| 0.047 | CCOC(=O)C1CCN(C(=O)N2CCCOC(c3ccccc3OC)c3cc(Cl)ccc3N(CC(C)(C)C)C(=O)C2)CC1 (centres undefined) |
| 0.019 | CCOC(=O)[C@@H]1CCC[C@@H](N2CCOC(c3ccccc3OC)c3cc(Cl)ccc3N(CC(C)(C)C)C(=O)CC2=O)C1 (some centres undefined) |
| 0.03 | CCOC(=O)C1CCC(N2CCOC(c3ccccc3OC)c3cc(Cl)ccc3N(CC(C)(C)C)C(=O)CC2=O)CC1 (centres undefined) |

System: Hepatocyte
Test: Inhibition of cholesterol biosynthesis in rat hepatocytes preincubated for 1 hr followed by [14C]mevalonolactone addition and measured after 1 hr by liquid scintillation counter analysis
Assay type: functional, cell-based
Settings: not given

| SMILES | IC50 [µM] |
| --- | --- |
| COc1ccccc1[C@@H]1OCCCN(C(=O)N2CCC(CC(=O)O)CC2)CC(=O)N(CC(C)(C)C)c2ccc(Cl)cc21 | > 3 |
| COc1ccccc1[C@@H](O)c1cc(Cl)ccc1N(CC(C)(C)C)C(=O)CCC(=O)N1CCC[C@H](C(=O)O)C1 | 0.12 |
| COc1ccccc1[C@H]1OCCCN(C(=O)N2CCC(CC(=O)O)CC2)CC(=O)N(CC(C)(C)C)c2ccc(Cl)cc21 | 0.12 |

System: not listed separately
Test: Effect on triglyceride level in hamster assessed as increase in triglyceride level in serum at 100 mg/kg, po bid administered at 9 a.m and 4 p.m for 14 days relative to control
Assay type: functional, Cricetinae
Settings: time 14 day

| SMILES | Activity [%] |
| --- | --- |
| COc1cccc([C@H]2O[C@H](CC(=O)N3CCC(CC(=O)O)CC3)C(=O)N(CC(C)(C)CO)c3ccc(Cl)cc32)c1OC | 8 |

System: marmosets
Test: Lipid lowering effect in chow diet fed marmosets assessed as reduction in total cholesterol level in serum at 10 mg/kg, po qd administered once a day to 9 to 10 a.m for 7 days relative to control
Assay type: functional, Callitrichinae sp.
Design: scale not given: the % may be the effect or the level left
Settings: time 7 day

| SMILES | Activity [%] |
| --- | --- |
| COc1cccc([C@H]2O[C@H](CC(=O)N3CCC(CC(=O)O)CC3)C(=O)N(CC(C)(C)CO)c3ccc(Cl)cc32)c1OC | 24 |

System: marmosets
Test: Lipid lowering effect in chow diet fed marmosets assessed as reduction in non-HDL level in serum at 10 mg/kg, po qd administered once a day to 9 to 10 a.m for 7 days relative to control
Assay type: functional, Callitrichinae sp.
Design: scale not given: the % may be the effect or the level left
Settings: time 7 day

| SMILES | Activity [%] |
| --- | --- |
| COc1cccc([C@H]2O[C@H](CC(=O)N3CCC(CC(=O)O)CC3)C(=O)N(CC(C)(C)CO)c3ccc(Cl)cc32)c1OC | 34 |

System: marmosets
Test: Lipid lowering effect in chow diet fed marmosets assessed as reduction in HDL level in serum at 10 mg/kg, po qd administered once a day to 9 to 10 a.m for 7 days relative to control
Assay type: functional, Callitrichinae sp.
Design: scale not given: the % may be the effect or the level left
Settings: time 7 day

| SMILES | Activity [%] |
| --- | --- |
| COc1cccc([C@H]2O[C@H](CC(=O)N3CCC(CC(=O)O)CC3)C(=O)N(CC(C)(C)CO)c3ccc(Cl)cc32)c1OC | 3 |

System: marmosets
Test: Lipid lowering effect in chow diet fed marmosets assessed as reduction in triglyceride level in serum at 10 mg/kg, po qd administered once a day to 9 to 10 a.m for 7 days relative to control
Assay type: functional, Callitrichinae sp.
Design: scale not given: the % may be the effect or the level left
Settings: time 7 day

| SMILES | Activity [%] |
| --- | --- |
| COc1cccc([C@H]2O[C@H](CC(=O)N3CCC(CC(=O)O)CC3)C(=O)N(CC(C)(C)CO)c3ccc(Cl)cc32)c1OC | 38 |
